Measured values published in ChEMBL document CHEMBL1201862, “PubChem BioAssay data set” (2004).
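Following 48 hours of exposure in 96-well plates, responses at five concentrations were used to interpolate endpoints linearly. GI50 is the concentration that inhibits growth by half.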 Active and inactive are the calls of the source. Rule as the data show it: active = GI50 up to about 1.1 µM and inactive = higher.

What was measured:
Experiment in all cases: NCI anticancer screen, dose series, 48 h
PC-3 = system: PC-3
Malme-3M = system: Malme-3M
NCI-H23 = system: NCI-H23
NCI-H522 = system: NCI-H522
SNB-19 = system: SNB-19
UACC-257 = system: UACC-257
EKVX = system: EKVX
OVCAR-8 = system: OVCAR-8
T47D = system: T47D
OVCAR-3 = system: OVCAR-3
UO-31 = system: UO-31
MOLT-4 = system: MOLT-4
HOP-92 = system: HOP-92
MDA-N = system: MDA-N
A549 = system: A549
OVCAR-5 = system: OVCAR-5
SF-268 = system: SF-268
OVCAR-4 = system: OVCAR-4
NCI-H226 = system: NCI-H226
SF-539 = system: SF-539

Measured: GI50

O=C(O)CSc1nc2ccccc2[nH]1
inactive: PC-3 > 100 µM | Malme-3M > 100 µM | NCI-H23 > 100 µM | NCI-H522 > 100 µM | SNB-19 > 100 µM | UACC-257 > 100 µM | EKVX > 100 µM | OVCAR-8 > 100 µM | T47D > 100 µM | OVCAR-3 > 100 µM | UO-31 > 100 µM | MOLT-4 6.25 µM | HOP-92 > 100 µM | MDA-N > 100 µM | A549 > 100 µM | OVCAR-5 > 100 µM | SF-268 > 100 µM | OVCAR-4 > 100 µM

Cc1ccc(S(=O)(=O)N/N=C2\C(=O)Nc3cc(O)c(C(=O)O)cc32)cc1
inactive: PC-3 > 100 µM | Malme-3M > 100 µM | NCI-H23 > 100 µM | NCI-H522 > 100 µM | SNB-19 > 100 µM | UACC-257 > 100 µM | NCI-H226 > 100 µM | EKVX 61.8 µM | OVCAR-8 > 100 µM | T47D > 100 µM | OVCAR-3 > 100 µM | UO-31 > 100 µM | MOLT-4 > 100 µM | MDA-N > 100 µM | A549 > 100 µM | OVCAR-5 > 100 µM | SF-268 > 100 µM | OVCAR-4 > 100 µM

COc1cccc(/C=N/n2c(Cc3ccccc3)n[nH]c2=O)c1
inactive: PC-3 > 100 µM | Malme-3M > 67.6 µM | NCI-H23 > 100 µM | NCI-H522 16.8 µM | SNB-19 > 100 µM | UACC-257 > 100 µM | SF-539 > 100 µM | EKVX > 72.6 µM | OVCAR-8 69 µM | T47D > 73.6 µM | OVCAR-3 > 100 µM | UO-31 > 100 µM | MOLT-4 > 100 µM | MDA-N > 100 µM | A549 > 100 µM | OVCAR-5 > 100 µM | SF-268 43 µM | OVCAR-4 > 100 µM

COc1cc(C2c3cc4c(cc3OC(Nc3ccccc3)C2C)OCO4)cc(OC)c1OC (configuration not stated)
inactive: SNB-19 1.19 µM | UACC-257 2.82 µM | NCI-H226 1.13 µM | EKVX 1.31 µM | OVCAR-8 1.44 µM | T47D 42.3 µM | UO-31 2.09 µM | SF-268 1.91 µM | OVCAR-4 24.7 µM
active: PC-3 0.468 µM | Malme-3M 0.166 µM | NCI-H23 0.991 µM | NCI-H522 0.337 µM | SF-539 0.262 µM | OVCAR-3 0.323 µM | MOLT-4 0.416 µM | MDA-N 0.161 µM | A549 1.11 µM

O=S(=O)(O)c1cc(O)c(/N=N/c2ccc3ccccc3c2O)c2ccccc12 [ERIOCHROME BLUE BLACK B]
inactive: PC-3 34.3 µM | NCI-H23 15.2 µM | NCI-H522 15.1 µM | SNB-19 37.8 µM | UACC-257 25.8 µM | NCI-H226 16.1 µM | EKVX 12.9 µM | T47D 15.8 µM | OVCAR-3 4.71 µM | UO-31 17.1 µM | MOLT-4 18 µM | HOP-92 28.5 µM | MDA-N 5.06 µM | A549 21.1 µM | OVCAR-5 33.3 µM | SF-268 10.5 µM | OVCAR-4 78.3 µM
active: Malme-3M 0.0753 µM

C=C(C)c1cc(C(C)(C)C)cc(C(=C)C)c1S(C)(=O)=O
inactive: PC-3 > 100 µM | Malme-3M > 100 µM | NCI-H23 > 100 µM | NCI-H522 > 100 µM | SNB-19 > 100 µM | NCI-H226 > 100 µM | SF-539 > 100 µM | EKVX > 100 µM | OVCAR-8 > 100 µM | T47D 10.7 µM | OVCAR-3 > 100 µM | UO-31 > 100 µM | MOLT-4 > 100 µM | MDA-N > 100 µM | A549 > 100 µM | OVCAR-5 > 100 µM | SF-268 > 100 µM | OVCAR-4 > 100 µM

CC1=NN(c2nc(N)nc(/C(C#N)=C\C3COc4ccccc4C3=O)n2)C(C)(C)C1 (configuration not stated)
inactive: PC-3 24.4 µM | NCI-H23 27 µM | NCI-H522 26.2 µM | UACC-257 51.4 µM | NCI-H226 22.8 µM | SF-539 26.2 µM | EKVX 22.5 µM | OVCAR-8 25.6 µM | T47D 18.2 µM | OVCAR-3 22.6 µM | UO-31 18.9 µM | MOLT-4 21.8 µM | HOP-92 36.5 µM | MDA-N 18.9 µM | OVCAR-5 35.6 µM | SF-268 21.1 µM | OVCAR-4 34 µM

CC(C)OP(=O)(OC(C)C)C(C(C)C)N(C)/C(N)=N/C#N (configuration not stated)
inactive: PC-3 > 100 µM | Malme-3M > 100 µM | NCI-H23 > 100 µM | NCI-H522 > 100 µM | SNB-19 > 100 µM | UACC-257 > 100 µM | NCI-H226 > 100 µM | SF-539 > 100 µM | EKVX > 100 µM | OVCAR-8 > 100 µM | T47D > 100 µM | OVCAR-3 > 100 µM | UO-31 > 100 µM | MOLT-4 > 100 µM | HOP-92 > 100 µM | MDA-N > 100 µM | A549 > 100 µM | SF-268 > 100 µM | OVCAR-4 > 100 µM

O=C(O/C=C\OC1CCCC1(c1ccccc1)c1ccccc1)c1ccccc1 (configuration not stated)
inactive: PC-3 3.34 µM | NCI-H23 2.19 µM | NCI-H522 19 µM | SNB-19 14.8 µM | UACC-257 15.8 µM | NCI-H226 19.8 µM | SF-539 3.66 µM | EKVX 17.5 µM | OVCAR-8 3 µM | T47D 1.61 µM | OVCAR-3 9.2 µM | UO-31 1.87 µM | MOLT-4 4.29 µM | HOP-92 2.07 µM | MDA-N 3.47 µM | A549 21.4 µM | OVCAR-5 16.8 µM | SF-268 4.05 µM | OVCAR-4 3.15 µM

CC(=O)Nc1ccc(NS(=O)(=O)c2ccc3nc(C)n(NS(=O)(=O)c4ccc(NC(C)=O)cc4)c(=O)c3c2)cc1
inactive: PC-3 > 100 µM | NCI-H23 > 100 µM | NCI-H522 > 60.7 µM | SNB-19 > 100 µM | UACC-257 > 100 µM | NCI-H226 > 100 µM | SF-539 > 100 µM | EKVX > 100 µM | OVCAR-8 > 100 µM | T47D > 100 µM | OVCAR-3 > 100 µM | UO-31 > 100 µM | MOLT-4 > 100 µM | HOP-92 > 100 µM | MDA-N > 100 µM | A549 > 100 µM | OVCAR-5 > 100 µM | SF-268 > 100 µM | OVCAR-4 > 100 µM

COC1=C(OC)C(=O)C(Cc2c(-c3ccccc3)nc3sc(Cl)cn23)=C(C)C1=O
inactive: PC-3 16.6 µM | Malme-3M 16.5 µM | NCI-H23 17.8 µM | NCI-H522 13.6 µM | SNB-19 18.2 µM | UACC-257 16 µM | SF-539 17.1 µM | EKVX 20.7 µM | OVCAR-8 15.2 µM | T47D 23.4 µM | OVCAR-3 16.3 µM | UO-31 15.8 µM | MOLT-4 1.96 µM | MDA-N 16.3 µM | A549 21.7 µM | OVCAR-5 28.2 µM | SF-268 18.8 µM | OVCAR-4 3.61 µM

CCCCSC1=N/C(=C\c2ccc(N(C)C)cc2)C(NN)=N1
inactive: PC-3 > 100 µM | Malme-3M > 100 µM | NCI-H23 > 100 µM | NCI-H522 > 100 µM | SNB-19 > 100 µM | UACC-257 > 100 µM | EKVX > 100 µM | OVCAR-8 > 100 µM | T47D > 100 µM | OVCAR-3 > 100 µM | MOLT-4 > 100 µM | HOP-92 > 100 µM | MDA-N > 100 µM | A549 > 100 µM | OVCAR-5 > 100 µM | SF-268 > 100 µM | OVCAR-4 > 100 µM

C=CCOc1ccc(N)c([N+](=O)[O-])c1
inactive: PC-3 > 100 µM | Malme-3M > 100 µM | NCI-H23 > 100 µM | NCI-H522 63.4 µM | SNB-19 > 100 µM | UACC-257 > 100 µM | NCI-H226 > 100 µM | SF-539 > 100 µM | EKVX > 100 µM | OVCAR-8 > 100 µM | T47D > 100 µM | UO-31 94.4 µM | MOLT-4 > 100 µM | MDA-N > 100 µM | A549 > 100 µM | OVCAR-5 > 100 µM | SF-268 > 100 µM

O/N=C1\Nc2ccccc2OCc2cc(Br)c(Br)cc2COc2ccccc2N\C1=N/O
inactive: PC-3 13.4 µM | Malme-3M 16.4 µM | NCI-H23 13.8 µM | NCI-H522 6.43 µM | SNB-19 10.7 µM | UACC-257 21.8 µM | NCI-H226 21.5 µM | EKVX 15.2 µM | OVCAR-8 10.4 µM | T47D 10.9 µM | OVCAR-3 7.21 µM | UO-31 19.1 µM | MOLT-4 3.63 µM | HOP-92 12.6 µM | MDA-N 14.3 µM | A549 17.6 µM | OVCAR-5 17.9 µM | SF-268 8.91 µM | OVCAR-4 10.7 µM

O=C(OCc1ccccc1)N(CCCCN(CCCNC(=O)C(F)(F)F)C(=O)OCc1ccccc1)CCCNC(=O)C(F)(F)F
inactive: PC-3 36.9 µM | NCI-H23 > 100 µM | NCI-H522 2.94 µM | SNB-19 4.2 µM | UACC-257 > 100 µM | NCI-H226 > 100 µM | SF-539 > 100 µM | EKVX > 100 µM | OVCAR-8 > 100 µM | T47D > 100 µM | OVCAR-3 > 100 µM | UO-31 3.56 µM | MOLT-4 8.87 µM | HOP-92 > 100 µM | MDA-N > 100 µM | A549 > 66.8 µM | OVCAR-5 > 100 µM | SF-268 > 100 µM | OVCAR-4 > 100 µM
